Paper PMC10044120, “Potent and selective covalent inhibition of the papain-like protease from SARS-CoV-2” (Nature Communications, 2023)
“And” between values parts separate entries of the source, which are not always exact repeats. Identical values can stand only once. Like-named read-outs stand apart in the source and are kept apart here.

How the values were obtained:
PLpro from SARS-CoV-2 [1] = biological target: T1, PLpro from SARS-CoV-2 (Severe acute respiratory syndrome coronavirus 2, UniProt P0DTD1); assay: biochemical; assay type: biochemical; details: for remaining activity at 0.06 µM: inhibitor 0.06 uM; for remaining activity at 0.2 µM: inhibitor 0.20 uM; for IC50: after 30-min incubation
[2] = system: SARS-CoV-2 isolate USA-WA1/2020; details: read-out: cytopathic effect, % cell viability, duplicate wells
[3] = system: SARS-CoV-2 isolate USA-WA1/2020; assay: microbe, parasite or virus in culture; details: for inhibition at 2.08 µM: Severe acute respiratory syndrome coronavirus 2, Vero C1008, read-out: cytopathic effect, % cell viability, [inhibitor] 2.08 uM
PLpro = PLpro (Severe acute respiratory syndrome coronavirus 2, UniProt P0DTD1); assay: Intact protein ESI-MS to assess covalent adduct formation; assay type: binding, SARS-CoV-2; set-up: unit not given here
Vero E6 cells = details: African green monkey, 48 h
PLpro from SARS-CoV-2 [4] = biological target: T1, PLpro from SARS-CoV-2; assay: biochemical; assay type: biochemical; set-up: mean (kobs plot, Supplementary Figure 6 II): unit: min^-1
in vitro = details: African green monkey, cytotoxicity, %cell viability
[5] = Metabolic stability in human liver microsomes
[6] = system: viral replication in Vero E6 cells; details: cited from earlier work
[7] = Metabolic stability in human liver S9 fraction
[8] = Metabolic stability in mouse liver S9 fraction; details: CD-1, mouse
[9] = Metabolic stability in mouse liver microsomes; details: CD-1, mouse
[10] = Metabolic stability in rat liver microsomes; details: Sprague-Dawley
[11] = Metabolic stability in rat liver S9 fraction; details: Sprague-Dawley

Work on `COC(=O)/C=C/C(=O)NNC(=O)CCc1ccc(NC(C)=O)cc1C(=O)N[C@H](C)c1cccc2ccccc12` [Compound 8, methyl-(R,E)-4-(2-(3-(4-acetamido-2-((1-(naphthalen-1-yl)ethyl)carbamoyl)phenyl)propanoyl)hydrazineyl)-4-oxobut-2-enoate] yielded a remaining activity at 0.06 µM (PLpro from SARS-CoV-2 [1]; 0.5 h) of 89.5%, a remaining activity at 0.2 µM (PLpro from SARS-CoV-2 [1]; 0.5 h) of 57.8% and an IC50 (PLpro from SARS-CoV-2 [1]) of 0.23 µM. It also gave an inhibition ([2]; [inhibitor] 2.08 uM, 2.08 µM) of 0.9%, an inhibition ([2]; [inhibitor] 8.33 uM, 8.33 µM) of 2.82% and an inhibition at 2.08 µM ([3]; duplicate wells) of 1.22%. The inhibition at 8.33 µM ([3]; Severe acute respiratory syndrome coronavirus 2, Vero C1008, read-out: cytopathic effect, % cell viability, [inhibitor] 8.33 uM, duplicate wells) was 4.63%, the Measured adduct mass (PLpro) was 531 and the “cytotoxicity, %cell viability” value (Vero E6 cells; 2.08 µM) was 78.830%. The “cytotoxicity, %cell viability” value (Vero E6 cells; 8.33 µM) was 82.620%, the “cytotoxicity, %cell viability” value (Vero E6 cells; 16.67 µM) was 76.260% and the “cytotoxicity, %cell viability” value (Vero E6 cells; 33.33 µM) was 75.370%. It also gave a kinact/KI (PLpro from SARS-CoV-2 [4]) of 9000 M⁻¹ s⁻¹, a remaining activity at 0.1 µM (PLpro from SARS-CoV-2 [4]; 5 min, read-out: PLpro activity after preincubation, inhibitor 0.1 uM, preincubation 5 min) of 79.5% and a remaining activity at 0.1 µM (PLpro from SARS-CoV-2 [4]; 10 min, read-out: PLpro activity after preincubation, inhibitor 0.1 uM, preincubation 10 min) of 71.5%. The remaining activity at 0.1 µM (PLpro from SARS-CoV-2 [4]; 0.5 h, read-out: PLpro activity after preincubation, inhibitor 0.1 uM, preincubation 30 min) was 66.2%, the remaining activity at 0.1 µM (PLpro from SARS-CoV-2 [4]; 1 h, read-out: PLpro activity after preincubation, inhibitor 0.1 uM, preincubation 60 min) was 64.4% and the remaining activity at 0.2 µM (PLpro from SARS-CoV-2 [4]; 1 h, read-out: PLpro activity after preincubation, inhibitor 0.2 uM, preincubation 60 min) was 12.6%. For the same compound, the remaining activity at 0.1 µM (PLpro from SARS-CoV-2 [4]; […], read-out: PLpro activity after preincubation, inhibitor 0.1 uM, preincubation 15 min) was 66.3%, the remaining activity at 0.1 µM (PLpro from SARS-CoV-2 [4]; […], read-out: PLpro activity after preincubation, inhibitor 0.1 uM, preincubation 45 min) was 72.5% and the remaining activity at 0.1 µM (PLpro from SARS-CoV-2 [4]; […], read-out: PLpro activity after preincubation, inhibitor 0.1 uM, preincubation 90 min) was 44.6%. The “Time dep. (time-dependent inhibition)” value (PLpro from SARS-CoV-2 [4]; fluorogenic peptide assay, varied preincubation time) was “Yes”, the “mean (kobs plot, Supplementary Figure 6 II)” value (PLpro from SARS-CoV-2 [4]; inhibitor 0.10 uM) was 0.0091 and the “mean (kobs plot, Supplementary Figure 6 II)” value (PLpro from SARS-CoV-2 [4]; inhibitor 0.20 uM) was 0.0652. The viability at 48 h, 2.08 µM (in vitro) was 83.7%, the viability at 48 h, 8.33 µM (in vitro) was 87.2% and the viability at 48 h, 16.67 µM (in vitro) was 82.6%. It also gave a viability at 48 h, 33.33 µM (in vitro) of 75.6%.

In the case of `Cc1ccccc1C(=O)N[C@H](C)c1cccc2ccccc12` [Compound 14, (R)-2-methyl-N-(1-(naphthalen-1-yl)ethyl)benzamide], the half-life [5] is given as 41 min, the microsomal CLint [5] is given as 171 µL/min/mg and the EC50 [6] is given as 10 µM. For the same compound, the remaining activity at 0.02 µM (PLpro from SARS-CoV-2 [1]; 0.5 h, inhibitor 0.02 uM) was 96.3%, the remaining activity at 0.06 µM (PLpro from SARS-CoV-2 [1]; 0.5 h) was 94.2% and the remaining activity at 0.2 µM (PLpro from SARS-CoV-2 [1]; 0.5 h) was 103%. For the same compound, the remaining activity at 2.01 µM (PLpro from SARS-CoV-2 [1]; 0.5 h, inhibitor 2.01 uM) was 90.5%, the remaining activity at 6.34 µM (PLpro from SARS-CoV-2 [1]; 0.5 h, inhibitor 6.34 uM) was 77.4% and the remaining activity at 20 µM (PLpro from SARS-CoV-2 [1]; 0.5 h, inhibitor 20.00 uM) was 56.2%. It also gave a remaining activity at 200 µM (PLpro from SARS-CoV-2 [1]; 0.5 h, inhibitor 200.00 uM) of 40.8%, an IC50 (PLpro from SARS-CoV-2 [1]) of 100 µM and an inhibition ([2]; [inhibitor] 2.08 uM, 2.08 µM) of 7.39%. For the same compound, the inhibition ([2]; [inhibitor] 16.65 uM, 16.65 µM) was 5.25%, the half-life [7] was > 60 min and the microsomal CLint [7] was < 38.5 µL/min/mg. For the same compound, the half-life [8] was 18 min, the microsomal CLint [8] was 128 µL/min/mg and the half-life [9] was 16 min. For the same compound, the microsomal CLint [9] was 435 µL/min/mg, the half-life [10] was 21 min and the microsomal CLint [10] was 330 µL/min/mg. For the same compound, the half-life [11] was 17 min, the microsomal CLint [11] was 138 µL/min/mg and the inhibition at […] ([3]; Severe acute respiratory syndrome coronavirus 2, Vero C1008, read-out: cytopathic effect, % cell viability) was 7.92% and 10.7%. For the same compound, the inhibition at 2.08 µM ([3]; duplicate wells) was 11.3%, the inhibition at 16.65 µM ([3]; Severe acute respiratory syndrome coronavirus 2, Vero C1008, read-out: cytopathic effect, % cell viability, [inhibitor] 16.65 uM, duplicate wells) was 7.05% and the “cytotoxicity, %cell viability” value (Vero E6 cells; 2.08 µM) was 96.55%. The “cytotoxicity, %cell viability” value (Vero E6 cells; 8.33 µM) was 99.10%, the “cytotoxicity, %cell viability” value (Vero E6 cells; 16.65 µM) was 92.38% and the viability at 48 h, 2.08 µM (in vitro) was 100%. It also gave a viability at 48 h, 8.33 µM (in vitro) of 95.2% and a viability at 48 h, 16.65 µM (in vitro) of 95.7%.
